We go through 2 molecules from publication PMC9608142, “Population pharmacokinetic analysis, renal safety, and dosing optimization of polymyxin B in lung transplant recipients with pneumonia: A prospective study” (Frontiers in Pharmacology, 2022).

Data set [1] in a line: Population pharmacokinetic analysis (NONMEM) of polymyxin B plasma concentrations in lung transplant recipients. In kind it is in vivo, human. The source says:
(§1) This prospective study was approved by the Ethical Committees of the affiliated Wuxi People’s Hospital of Nanjing Medical University, China (KS202002), in accordance with the Declaration of Helsinki. The informed consent was obtained from each patient or his/her legal representatives. Adult lung transplant recipients receiving polymyxin B sulfate against confirmed MDR Gram-negative bacterial infections at the affiliated Wuxi People’s Hospital of Nanjing Medical University, from January 2020 to December 2021, were included in this study. The inclusion criteria were as follows: 1) ≥18 years old; 2) diagnosis of pneumonia; 3) receiving polymyxin B therapy for at least 3 days; 4) having at least one plasma concentration of polymyxin B. The exclusion criteria were as follows: 1) allergic or intolerant to polymyxin B; 2) died within 24 h after being treated with polymyxin B.
(§2) The decision to administer polymyxin B (sulfate, Polymyxin B for Injection, Shanghai Number one Biochemical and Pharmaceutical, Shanghai, China) and its medication, including the amount, dosing interval, administration route, and treatment duration, were decided by the attending physician. Generally, the loading dose of 2.0–2.5 mg/kg, and the maintenance dose of 1.25–1.5 mg/kg given every 12 h infused over 1 h was recommended according to the guideline for optimizing polymyxins ([Tsuji et al., 2019]). In addition, inhalation of polymyxin B sulfate (25 mg q12h) was combinedly used.
All the blood samples were collected at least 48 h after initiating polymyxin B ([Tsuji et al., 2019]). In each patient, four blood samples were collected: 0.5 h before starting the infusion, 1, 2, and 6 h after completing the infusion, respectively. After sampling, blood samples were immediately centrifuged at 15,000 rpm for 5 min and stored at −80°C. The concentrations of polymyxin B in the blood samples were determined by a validated high-performance liquid chromatography-tandem mass spectrometry (LC-MS/MS) assay ([Thomas et al., 2012]). The calibration range of polymyxin B by the method was 0.1–30 μg/ml. The method validations including selectivity, recovery, precision, accuracy, matrix effect, calibration curve, and stability met the requirement of FDA principles.
Nonlinear mixed-effects modeling (NONMEM) program (version 7.4, Icon Development Solutions, Ellicott City, MD, United States) and Pirana (version 2.9.7) was used to perform PK analysis of polymyxin B. R (Version 3.6.1) was used to analyze the NONMEM output. The first-order conditional estimation with the interaction between inter-patient variability and residual variability was used for model development.
One- or two-compartment structural model with first-order elimination were explored for the concentration-time profiles. Visual inspection of diagnostic plots and goodness-of-fit criteria, condition number, and improvement of the objective function value (OFV) were performed to evaluate the base model. The pharmacokinetic parameters used for this study were clearance (CL) and volume of distribution (V). Between-subject variability (BSV) was assessed using the exponential model (Eq. 1). Pi=P×EXP(ETA( ηi)) (1) Pi was the individual patient PK parameter; P was the typical value; ηi was the interpatient random variation.
Residual variability was assessed by additive (Eq. 2), proportional (Eq. 3), or combined (additive plus proportional) (Eq. 4) error models, respectively. The optimal one was chosen based on the decrease in OFV. Y=F+EPS (1) (2) Y=F+F×EPS (1) (3) Y=F+F×EPS (1)+EPS(2) (4) Y was the individual observed concentration; F was the individual predictive concentration; EPS was the residual random variation.
Relationships between the potential covariates and individual PK parameters were examined visually. […]

Data set [2] deals with carbapenem-resistant organisms (A. baumannii, P. aeruginosa, K. pneumoniae, E. cloacae). Description: Clinical treatment efficacy and microbiological efficacy in lung transplant recipients with pneumonia. In kind it is in vivo, human.
Excerpt: as §1
The demographic characteristics, laboratory data, pathogenic bacteria, medication information, and adverse events of polymyxin B sulfate were acquired from the patients’ medical records. Clinical success was defined as improvement of clinical symptoms and parameters including body temperature, biochemistry indicators of infection (white cell count ≤ 10^9, C-reactive protein ≤10 mg/L, procalcitonin <0.05 ng/ml, and erythrocyte sedimentation rate <15 mm/h), and clinician-documented improvement at the end of treatment ([Yu et al., 2022]). RIFLE (Risk, Injury, Failure, Loss of function, and End-stage kidney disease) criteria were used to assess the acute kidney injury (AKI) caused by polymyxin B ([Han et al., 2022]). The definition of nephrotoxicity caused by polymyxin B was further confirmed using the Naranjo criteria. Hyperpigmentation is defined as the darkening of the skin’s natural color, usually due to an increase in melanin deposition in the epidermis or dermis ([Lu and Hou, 2020]).
as §2

The conditions of data set [3]: cited from earlier work. From the text:
Supplement DataSheet1.docx, table 2: Table S2. […] The urinary recovery of polymyxin B is low and non-renal clearance is considered the major route of the clearance of polymyxin B ([Tsuji et al., 2019]), but it undergoes extensive reabsorption by renal tubular cells ([Nang et al., 2021]). […] The ratio of the area of unbound concentration-time curve to the MIC (fAUC/MIC) is the best PK/PD index predicting bacterial killing for polymyxins ([Dudhani et al., 2010a]; [Dudhani et al., 2010b]; [Cheah et al., 2015]). The fAUC/MIC value ≥20 at various MICs (0.5–2 mg/L) was used as the target ([Sandri et al., 2013]), where f (assumed to be 0.42) is the unbound fraction of polymyxin B ([Sandri et al., 2013]). The probability of target attain ... || (+ 2 further places)

For data set [4] the following is noted: parenteral polymyxin B, mouse infection studies; ref Nang et al., 2021; cited from earlier work. The source says: The urinary recovery of polymyxin B is low and non-renal clearance is considered the major route of the clearance of polymyxin B ([Tsuji et al., 2019]), but it undergoes extensive reabsorption by renal tubular cells ([Nang et al., 2021]).
In data set [5] the test system is Acinetobacter Baumannii. The note with it: thigh infection model, ref Cheah et al., 2015; cited from earlier work. How it is done:
(§3) This is the first study to simulate the PTA and AUCss,24h of different dosage regimens in lung transplant patients. In vitro and animal studies pointed out that fAUC/MIC is the PK/PD index that is best correlated with the efficacy of polymyxins ([Tsuji et al., 2019]). In the thigh infection model, the fAUC/MIC values of colistin for 2log10 bacterial killings were approximately 20 for P. aeruginosa and Acinetobacter Baumannii ([Cheah et al., 2015]). Therefore, considering the similar molecular structures and in vitro activity of colistin and polymyxin B, the fAUC/MIC ≥20 was determined as the P ...

The subject of data set [6] is P. aeruginosa. The note with it: thigh infection model, ref Cheah et al., 2015; cited from earlier work. How it is done: as §3
Setting [7] is: bootstrap of final model, median estimate, 1,000 replicates.
Where [8] appears, read: adult patients, n = 35, 1 CMT, ref Manchandani et al. 2018 [29].
Where [9] appears, read: adult patients, n = 43, 1 CMT, ref Kubin et al. 2018 [31].
The mark [10] stands for this setting: adult patients, n = 46, 2 CMT, ref Wang et al. 2020 [27].
Setting [11] is: adult patients, n = 52, 2 CMT, ref Miglis et al. 2018 [28].
Setting [12] is: adult patients, n = 52, ref Miglis et al. 2018 [28].
Setting [13] is: critically ill patients, n = 24, 2 CMT, ref Sandri et al. 2013 [22].

Read-outs that look alike come from different tables or passages of the source. Bridge positions count the residues as written; N and C are the ends. Square brackets hold non-standard residues; d marks the D form. Peptide text beside a SMILES is read from it. * marks the point of attachment. X1 = CC[C@H](C)CCCCC(=O)*; Dab = NCC[C@H](N)C(=O)O

For orientation: AUC means the area under the concentration-time curve, a measure of exposure. As to `CC[C@H](C)CCCCC(=O)N[C@@H](CCN)C(=O)N[C@H](C(=O)N[C@@H](CCN)C(=O)N[C@H]1CCNC(=O)[C@H]([C@@H](C)O)NC(=O)[C@H](CCN)NC(=O)[C@H](CCN)NC(=O)[C@H](CC(C)C)NC(=O)[C@@H](Cc2ccccc2)NC(=O)[C@H](CCN)NC1=O)[C@@H](C)O` [polymyxin B] (X1-[Dab]T[Dab][Dab][Dab][dF]L[Dab][Dab]T; lactam 4-C), the “θCL, typical value of clearance” value in data set [1] (setting [7]) is given as 1.72 L/h. Moreover, the “θV, typical value of volume of distribution” value in data set [1] (setting [7]) is listed as 14.3 L; in data set [1] (final model estimate, 1-compartment) it was 14.4 L. The “effect of concomitant furosemide or albumin on the PK of polymyxin B” value in data set [1] (covariate test in lung transplant recipients, limited number of patients) was “did not significantly affect the PK”. The “CrCL on CL (θ1), exponential value for CrCL as covariate of CL” value in data set [1] (final model estimate, CrCL/78.49) is reported as 0.681. Moreover, the clearance is 27.5 mL/min in data set [1] (human, plasma, iv, base model estimate (no covariate), read-out: TVCL, typical value of clearance (converted)); 28.7 mL/min in data set [1] (human, plasma, iv, final model estimate, 1-compartment, first-order elimination, at median CrCL 78.49 ml/min, read-out: θCL, typical value of clearance (converted)); 31.2 mL/min in data set [1] (human, plasma, iv, present study, lung transplant patients, n = 34, read-out: CL (PK Parameters) (converted)). Also, the Vd in data set [1] (human, plasma, iv, base model estimate, read-out: TVV, typical value of volume) was 14.6 L. Also, the AUC in data set [1] (mean ± SD, 34 lung transplant recipients, AUC0-24 by linear-log trapezoidal rule from Bayesian-predicted concentrations, SD) is 69660 ± 35920 ng·h/mL. For the same molecule, the “Clinical anti-infective outcome: Failed” value in data set [2] (5 of 34 patients, iv plus inhaled polymyxin B) is recorded as 5 (14.71%). Also, the “Clinical anti-infective outcome: Cured” value in data set [2] (12 of 34 patients, iv plus inhaled polymyxin B, treatment 17.94 ± 7.13 days) is given as 12 (35.29%). Further, the “Clinical anti-infective outcome: Improved” value in data set [2] (17 of 34 patients, iv plus inhaled polymyxin B) is given as 17 (50%). In data set [2] (29 of 34 patients, end of treatment), the “patients considered of clinical cure or improved” value worked out at 85.29%. The “CL, typical value in PK formula” value in data set [3] (adult critically ill patients, n = 32, 1 CMT, CL = 1.59+(CrCL/80)^0.408, ref Yu et al. 2021 [26]) is 1.59 L/h; in data set [3] (adult patients, n = 46, 2 CMT, ×(CrCL/105.9)^0.362, ref Wang et al. 2020 [27]) it was 1.786 L/h; in data set [3] (adult patients, n = 52, 2 CMT, ×(TBW/75)^0.75, ref Miglis et al. 2018 [28]), 2.63 L/h; in data set [3] (critically ill patients, n = 24, 2 CMT, ×(TBW/75)^0.75, ref Sandri et al. 2013 [22]), 0.46 mL/min/kg; in data set [3] (renal transplant patients, n = 50, 1 CMT, CL = 1.18×(CrCL/22.2)^0.14, ref Li et al. 2021 [14]), 1.18 L/h. For the same molecule, the V was 20.5 L in data set [3] (adult critically ill patients, n = 32, 1 CMT, ref Yu et al. 2021 [26]); 34.3 L in data set [3] (setting [8]); 33.4 L in data set [3] (setting [9]); 6.218 L in data set [3] (setting [10]); 12.09 L in data set [3] (renal transplant patients, n = 50, 1 CMT, ref Li et al. 2021 [14]). In addition, the “CL (PK Parameters)” value in data set [3] (adult critically ill patients, n = 32, ref Yu et al. 2021 [26]) is reported as 1.75 L/h; in data set [3] (setting [12]), 2.63 ± 1.41 L/h. The “CL in PK formula” value in data set [3] (setting [8]) was 2.5 L/h; in data set [3] (setting [9]) it was 2.37 L/h. For the same molecule, in data set [3] (adult patients, n = 35, mean, ref Manchandani et al. 2018 [29]), the “CL (PK Parameters), mean” value was 2.5 L/h. For the same molecule, the Q was 13.518 L/h in data set [3] (setting [10]) and 2.32 L/h in data set [3] (setting [11]). For the same molecule, the V2 in data set [3] (setting [10]) is recorded as 11.922 L; in data set [3] (setting [13]), 0.330 L/kg. For the same molecule, the “CL (PK Parameters), median” value in data set [3] (adult patients, n = 46, median, ref Wang et al. 2020 [27]) is listed as 1.786 L/h. In data set [3] (setting [11]), the Vc was 33.77 L. The Vp in data set [3] (setting [11]) is recorded as 78.20 L. For the same molecule, in data set [3] (setting [12]), the “V (PK Parameters)” value is reported as 33.77 ± 15.21 L. The “f, unbound fraction of polymyxin B” value in data set [3] (assumed value used for fAUC/MIC, ref Sandri et al., 2013) is on record as 0.42. Besides, the “effect of inhalation therapy on the exposure of polymyxin B in blood” value in data set [3] (co-inhalation 25 mg q12h, critically ill patients, ref Yu et al., 2021) is “did not significantly increase the exposure”. Also, the CLic in data set [3] (setting [13]) was 2.43 mL/min/kg. In data set [3] (setting [13]), the V1 is listed as 0.0939 L/kg. In addition, in data set [3] (non-renal clearance considered the major route, ref Tsuji et al., 2019), the urinary recovery result is “low”. Besides, in data set [4], the “penetration in the lungs” value is on record as “poor penetration in the lungs”.

On to colistin, for which the “fAUC/MIC value for 2log10 bacterial killings” value in data set [5] and in data set [6] was “approximately 20” throughout.
